Here are results for 9 molecules from US20080045537A1, “Chemical Compounds” (priority 2004, published 2008).

Holding throughout (assay type): cell-based
The target of one series is T1, human CXCR4 (Homo sapiens, UniProt P61073).
T1 construct: expressed in transfected cells; host or cells: HEK-293 cells (stably expressing human macrophage scavenging receptor) transduced with human CXCR4 BacMam and Gqi5 BacMam baculoviruses
The experiment in a line: Functional FLIPR assay (block of SDF-1 alpha induced [Ca2+]i change). To be noted: HEK-293 cells with human CXCR4 BacMam and Gqi5 BacMam; antagonism of SDF-1 alpha; read-out: Functional assay (pIC50) (converted). As for the experimental part:
Human embryonic kidney (HEK-293) cells were maintained and harvested as described above. Cells were plated in 96-well, black clear bottom, poly-lysine coated plates at a concentration of 40,000 cells per well in a final volume of 100 ul containing human CXCR4BacMam (MOI=25) and Gqi5 BacMam (MOI=12.5). The cells were incubated at 37° C., 5% CO2, 95% humidity for 24 h to allow for protein expression.
After the required incubation time the cells were washed once with 50 ul of fresh serum-free DMEM/F12 media containing probenicid. 50 ul of dye solution was then added to the cells (Calcium Plus Assay Kit Dye; Molecular Devices) was dissolved in 200 ml of the above probenicid/BSA containing media and incubated for 1 h. Cell plates were transferred to a Fluorometric Imaging Plate Reader (FLIPR). Upon addition the effect of the compounds on the change in [Ca^2+]i was examined to determine if the compounds were agonists or antagonists (ability to block SDF-1 alpha activity) at the CXCR4 receptor. IC50 values are determined and pKb values are calculated using the Leff and Dougall equation: KB=IC50/((2+([agonist]/EC50ˆb)ˆ1/b−1) Where IC50 is that defined by the antagonist concentration-response curve [agonist] is the EC80 concentration of agonist used EC50 is that defined by the agonist concentration-response curve b is the slope of the agonist concentration-response curve.

The subject of series [1] is HIV-1 gp160 (from the HXB2 HIV strain). Briefly: Cell/cell fusion assay (HEK-293 expressing HIV-1 tat, rev, gp160 with HOS hCXCR4/hCCR5/hCD4/pHIV-LTR-luciferase cells). To be noted: Human immunodeficiency virus 1, HXB2, HEK293, 24 h, read-out: Fusion assay (pIC50), luciferase readout after 24 h (converted). An excerpt: The complete coding sequences of HIV-1 tat (GenBank Accession No. X07861) and rev (GenBank Accession No. M34378) were cloned into pcDNA3.1 expression vectors containing G418 and hygromycin resistance genes, respectively. The complete coding sequence of the HIV-1 (HXB2 strain) gp160 envelope gene (nucleotide bases 6225-8795 of GenBank Accession No. K03455) was cloned into plasmid pCRII-TOPO. The three HIV genes were additionally inserted into the baculovirus shuttle vector, pFastBacMam1, under the transcriptional control of the CMV promoter. A construction of the pHIV-I LTR containing mutated NFkB sequences linked to the luciferase reporter gene was prepared by digesting pcDNA3.1, containing the G418 resistance gene, with Nru I and Bam HI to remove the CMV promoter. LTR-luc was then cloned into the Nru I/Bam HI sites of the plasmid vector. Plasmid preparations were performed after the plasmids were amplified in Escherichia coli strain DH5-alpha. The fidelity of the inserted sequences was confirmed by double-strand nucleotide sequencing using an ABI Prism Model 377 automated sequencer.
Recombinant BacMam baculoviruses were constructed from pFastBacMam shuttle plasmids by using the bacterial cell-based Bac-to-Bac system. Viruses were propagated in Sf9 (Spodoptera frugiperda) cells cultured in Hink's TNM-FH Insect media supplemented with 10% (v/v) fetal bovine serum and 0.1% (v/v) pluronic F-68 according to established protocols.
Human osteosarcoma (HOS) cells that naturally express human CXCR4 were transfected with human CCR5, human CD4 and the pHIV-LTR-luciferase plasmid using FuGENE 6 transfection reagent. Single cells were isolated and grown under selection condition in order to generate a stable HOS (hCXCR4/hCCR5/hCD4/pHIV-LTR-luciferase) clonal cell line. The cells were maintained in Dulbeccos modified Eagles media supplemented with 10% fetal calf serum (FCS), G418 (400 ug/ml), puromycin (1 ug/ml), mycophenolic acid (40 ug/ml), xanthine (250 ug/ml) and hypoxanthine (13.5 ug/ml) to maintain a selection pressure for cells expressing the LTR-luciferase, hCCR5 and hCD4, respectively. Human embryonic kidney (HEK-293) cells stably transfected to express the human macrophage scavenging receptor (Class A, type 1; GenBank Accession No. D90187), were maintained in DMEM/F-12 media (1:1) supplemented with 10% FCS and 1.5 ug/ml puromycin. The expression of this receptor by the HEK-293 cells enhances their ability to stick to tissue culture treated plasticware.
HEK-293 cells were harvested using enzyme-free cell dissociation buffer. The cells were resuspended in DMEM/F-12 media supplemented with 10% FCS and 1.5 ug/ml and counted. Tranductions were performed by direct addition of BacMam baculovirus containing insect cell media to cells. The cells were simultaneously transduced with BacMam baculovirus expressing HIV-1 tat, HIV-1 rev and HIV-1 gp160 (from the HXB2 HIV strain). Routinely an MOI of 10 of each virus was added to the media containing the cells. 2 mM butyric acid was also added to the cells at this stage to increase protein expression in transduced cells. The cells were subsequently mixed and seeded into a flask at 30 million cells per T225. The cells were incubated at 37° C., 5% CO2, 95% humidity for 24 h to allow for protein expression.
HEK and HOS cells were harvested in DMEM/F-12 media containing 2% FCS and DMEM media containing 2% FCS, respectively, with no selection agents added. Compounds were plated as 1 ul spots in 100% DMSO on a 96-well CulturPlate plates. HOS cells (50 ul) were added first to the wells, followed immediately by the HEK cells (50 ul). The final concentration of each cell type was 20,000 cells per well. Following these additions, the cells were returned to a tissue culture incubator (37° C.; 5% CO2/95% air) for an additional 24 h.
Following the 24 h incubation, total cellular luciferase activity was measured using the LucLite Plus assay kit (Packard, Meridien, Conn.). […]

Series [2] can be described thus: Compound cytotoxicity in the absence of virus addition (CellTiter-Glo). The conditions noted are these: human; non-infected HOS cultures; read-out: Cytotox (pIC50) (converted). The procedure: Compounds were profiled against two HIV-1 viruses, the M-tropic (CCR5 utilizing) Ba-L strain and the T-tropic (CXCR4 utilizing) IIIB strain. Both viruses were propagated in human peripheral blood lymphocytes. Compounds were tested for there ability to block infection of the HOS cell line (expressing hCXCR4/hCCR5/hCD4/pHIV-LTR-luciferase) by either HIV-1 Ba-L or HIV-1 IIIB. Compound cytotoxicity was also examined in the absence of virus addition.
HOS cells (expressing hCXCR4/hCCR5/hCD4/pHIV-LTR-luciferase) were harvested and diluted in Dulbeccos modified Eagles media supplemented with 2% FCS and non-essential amino acid to a concentration of 60,000 cells/ml. The cells were plated into 96-well plates (100 ul per well) and the plates were placed in a tissue culture incubator (37° C.; 5% CO2/95% air) for a period of 24 h.
Subsequently, 50 ul of the desired drug solution (4 times the final concentration) was added to each well and the plates were returned to the tissue culture incubator (37° C.; 5% CO2/95% air) for 1 h. Following this incubation 50 ul of diluted virus was added to each well (approximately 2 million RLU per well of virus). The plates were returned to the tissue culture incubator (37° C.; 5% CO2/95% air) and were incubated for a further 96 h.
Following this incubation the endpoint for the virally infected cultures was quantified following addition of Steady-Glo Luciferase assay system reagent (Promega, Madison, Wis.). Cell viability or non-infected cultures was measured using a CellTiter-Glo luminescent cell viability assay system (Promega, Madison, Wis.). All luminescent readouts are performed on a Topcount luminescence detector (Packard, Meridien, Conn.).
On the technique in general: Cellular ATP, detected with luciferase, serves as a proxy for viable cell number.

The subject of series [3] is HIV-1 IIIB (T-tropic, CXCR4 utilizing). The experiment in a line: HOS HIV-1 infectivity assay. The method, boiled down: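 HOS hCXCR4/hCCR5/hCD4/pHIV-LTR-luc cells, DMEM 2% FCS, 24 h preculture; cpd 1 h pre-virus; HIV-1 (PBL-grown) ~2 million RLU/well; 96 h, 37 °C. Readout: Steady-Glo luciferase (infected), CellTiter-Glo (no virus).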
[4] abbreviates: Human immunodeficiency virus 1, IIIB, as determined by the infectivity assay, strain not stated in Table 2, read-out: Activity Level.
Where [5] appears, read: Human immunodeficiency virus 1, HIV-1 IIIB, HOS cells, 96 h, luciferase readout, read-out: HOS (3B).

pIC50: −log10 of the molar value. Read-outs that look alike come from different tables or passages of the source.

T1 sequence (P61073 whole entry): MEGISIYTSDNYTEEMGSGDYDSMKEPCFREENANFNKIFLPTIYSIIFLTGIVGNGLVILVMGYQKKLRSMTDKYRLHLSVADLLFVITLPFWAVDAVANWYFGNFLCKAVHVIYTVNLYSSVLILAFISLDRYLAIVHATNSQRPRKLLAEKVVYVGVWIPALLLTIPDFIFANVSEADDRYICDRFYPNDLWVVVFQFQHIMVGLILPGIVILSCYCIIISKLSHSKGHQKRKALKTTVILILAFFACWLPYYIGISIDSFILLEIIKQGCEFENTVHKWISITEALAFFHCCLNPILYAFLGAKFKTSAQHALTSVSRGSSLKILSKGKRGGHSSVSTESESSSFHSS

For `CN(Cc1nc2cccc(C(=O)N3CCNCC3)c2n1C)C1CCCc2cccnc21` (centres unmarked) [Example 8, N-Methyl-N-{[1-methyl-7-(1-piperazinylcarbonyl)-1H-benzimidazol-2-yl]methyl}-5,6,7,8-tetrahydro-8-quinolinamine], the IC50 on human CXCR4 was 33.9 nM; in series [1], 53.7 nM. In addition, the IC50 at 96 h in series [2] is greater than 100000 nM. Further, the pIC50 in series [3] (setting [4]) was greater than 7.00; in series [3] (setting [5]), 7.37.
For `CCN(Cc1nc2cccc(C(=O)NCCCN)c2[nH]1)C1CCCc2cccnc21` (centres unmarked) [Example 15, N-(3-Aminopropyl)-2-{[ethyl(5,6,7,8-tetrahydro-8-quinolinyl)amino]methyl}-1H-benzimidazole-4-carboxamide], in that order: 120 nM, 355 nM, greater than 100000 nM, 6.30 to 7.00 and 6.85.
In the same order, the values of `CN(Cc1nc2c(C(=O)NCCc3c[nH]cn3)cccc2n1C)C1CCCc2cccnc21` (centres unmarked) [Example 9, N-[2-(1H-Imidazol-4-yl)ethyl]-1-methyl-2-{[methyl(5,6,7,8-tetrahydro-8-quinolinyl)amino]methyl}-1H-benzimidazole-4-carboxamide] are 91.2 nM, 75.9 nM, greater than 100000 nM, greater than 7.00 and 7.25.
In the same order, the values of `CCN(Cc1nc2cccc(C(=O)NCCCCN)c2[nH]1)C1CCCc2cccnc21` (centres unmarked) [Example 16, N-(4-Aminobutyl)-2-{[ethyl(5,6,7,8-tetrahydro-8-quinolinyl)amino]methyl}-1H-benzimidazole-4-carboxamide] are 288 nM, 724 nM, greater than 100000 nM, 6.30 to 7.00 and 6.62.
Take `CN(Cc1nc2cccc(C(=O)N3CCNCC3)c2[nH]1)C1CCCc2cccnc21` (centres unmarked) [Example 21, N-Methyl-N-{[4-(1-piperazinylcarbonyl)-1H-benzimidazol-2-yl]methyl}-5,6,7,8-tetrahydro-8-quinolinamine]: the IC50 is 15.8 nM on human CXCR4 and 60.3 nM in series [1]. Besides, the IC50 at 96 h in series [2] was greater than 100000 nM. For the same molecule, the pIC50 in series [3] (setting [4]) is greater than 7.00; in series [3] (setting [5]), 7.34.
In the same order, the values of `CN(Cc1nc2c(C(=O)NCCCN3CCCC3)cccc2[nH]1)C1CCCc2cccnc21` (centres unmarked) [Example 28, 2-{[Methyl(5,6,7,8-tetrahydro-8-quinolinyl)amino]methyl}-N-[3-(1-pyrrolidinyl)propyl]-1H-benzimidazole-4-carboxamide] are 57.5 nM, 148 nM, greater than 100000 nM, greater than 7.00 and 7.36.
Take `CN(Cc1nc2c(N3CCNCC3)cccc2[nH]1)C1CCCc2cccnc21` (centres unmarked) [Example 34, N-methyl-N-{[4-(1-piperazinyl)-1H-benzimidazol-2-yl]-methyl}-5,6,7,8-tetrahydro-8-quinolinamine]: the IC50 was 8.13 nM at human CXCR4 and 5.5 nM in series [1]. Further, in series [2], the IC50 at 96 h was greater than 100000 nM. Moreover, the pIC50 in series [3] (setting [5]) is 8.21.
As for `CN(Cc1nc2c(C(=O)N3CCC(N)C3)cccc2[nH]1)C1CCCc2cccnc21` (centres unmarked) [Example 31, N-({4-[(3-Amino-1-pyrrolidinyl)carbonyl]-1H-benzimidazol-2-yl}methyl)-N-methyl-5,6,7,8-tetrahydro-8-quinolinamine], the IC50 on human CXCR4 was 12.3 nM; in series [1] it was 49 nM. Also, the IC50 at 96 h in series [2] is greater than 100000 nM. Moreover, the pIC50 in series [3] (setting [5]) was 7.66; in series [3] (as determined by the infectivity assay, strain not stated in Table 2, read-out: Activity Level), greater than 7.00.
For the molecule `CN(Cc1nc2cccc(C(=O)NCCc3cnc[nH]3)c2[nH]1)C1CCCc2cccnc21` (centres unmarked) [Example 23, N-[2-(1H-Imidazol-4-yl)ethyl]-2-{[methyl(5,6,7,8-tetrahydro-8-quinolinyl)amino]methyl}-1H-benzimidazole-4-carboxamide], the IC50 is 13.5 nM on human CXCR4 and 158 nM in series [1]. Also, the IC50 at 96 h in series [2] is greater than 100000 nM. Further, the figures for the pIC50 in series [3] (setting [4]) and in series [3] (setting [5]) were greater than 7.00 and 7.74, respectively.
